Data from paper PMC5808360, “Neutral Porphyrin Derivative Exerts Anticancer Activity by Targeting Cellular Topoisomerase I (Top1) and Promotes Apoptotic Cell Death without Stabilizing Top1-DNA Cleavage Complexes” (Journal of Medicinal Chemistry, 2017).

Key:
[1] = system: PARP1 cleavage in MCF7 cells; test: Western blot of PARP1 cleavage in treated MCF7 cells; type: cell-based, human; conditions: 10 μM, 12 h
Description: (§1) Preparation of whole cell extracts from MCF7 cells and immunoblotting were carried out as described.[6],[40],[41] Immunoreactivity was detected using ECL chemiluminescence reaction (Amersham) under ChemiDoc MP system (Bio-Rad, USA).

[2] = biological target: T1, recombinant Top1 (Homo sapiens, UniProt P11387); test: Dilution assay with recombinant Top1 (reversibility of inhibition); type: biochemical
T1 construct: made in house; host or cells: Sf-9 insect cells (recombinant baculovirus, gift of Prof. James J. Champoux)
T1 sequence (P11387 1-765): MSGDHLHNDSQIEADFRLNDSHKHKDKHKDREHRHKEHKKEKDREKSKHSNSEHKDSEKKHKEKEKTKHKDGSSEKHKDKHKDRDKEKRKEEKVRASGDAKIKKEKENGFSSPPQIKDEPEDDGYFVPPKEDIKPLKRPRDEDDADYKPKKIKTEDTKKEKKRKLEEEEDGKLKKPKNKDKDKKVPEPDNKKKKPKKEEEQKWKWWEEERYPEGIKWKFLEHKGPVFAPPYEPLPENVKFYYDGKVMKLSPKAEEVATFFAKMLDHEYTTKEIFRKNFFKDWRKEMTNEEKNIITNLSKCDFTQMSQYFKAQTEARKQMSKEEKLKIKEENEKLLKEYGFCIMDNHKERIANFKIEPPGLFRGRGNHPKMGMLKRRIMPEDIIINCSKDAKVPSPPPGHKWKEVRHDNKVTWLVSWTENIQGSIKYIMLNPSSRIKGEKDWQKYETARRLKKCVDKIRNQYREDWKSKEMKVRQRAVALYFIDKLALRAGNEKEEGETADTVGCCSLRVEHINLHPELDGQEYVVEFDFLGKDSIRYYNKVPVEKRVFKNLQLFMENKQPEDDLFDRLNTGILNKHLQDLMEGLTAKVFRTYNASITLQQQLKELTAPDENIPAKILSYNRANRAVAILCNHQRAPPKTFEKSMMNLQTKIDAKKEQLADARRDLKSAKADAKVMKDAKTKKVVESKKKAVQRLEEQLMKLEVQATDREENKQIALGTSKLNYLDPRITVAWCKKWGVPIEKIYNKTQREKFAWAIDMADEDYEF
Text: To further investigate the nature of binding of compound 8 with Top1 (reversible vs irreversible),[12],[14] we performed dilution assay with recombinant Top1.

[3] = biological target: T2, Top1-DNA cleavage complexes (Top1cc) (Homo sapiens, UniProt P11387); test: Plasmid DNA cleavage assay (Top1cc formation); type: biochemical
T2 construct: made in house; host or cells: Sf-9 insect cells (recombinant baculovirus, gift of Prof. James J. Champoux)
T2 sequence (P11387 1-765): T1 sequence (P11387 1-765)
Description: Because camptothecin (CPT) stabilizes Top1-DNA cleavable complexes (Top1cc) to inhibit Top1 activity,[3],[5],[37] we investigated compound 8 induced Top1cc formation with the plasmid DNA cleavage assays.[6],[8],[36],[37] Top1 mediated conversion of closed circular DNA (form I) to nicked circular DNA (form II) in the presence of specific inhibitors is referred to as “cleavable complex”. […] To further investigate the impact of compound 8 on preformed Top1cc, we preincubated Top1 with plasmid DNA and CPT (Figure 2B) before the addition of compound 8 in the cleavage assays.
(§2) Plasmid DNA cleavage assay was carried out as described previously.[6],[8] For equilibrium cleavage assays, 25-mer duplex of oligonucleotide containing a Top1 binding motif was labeled and annealed as described previously.[13],[36],[38] Samples were analyzed by 12% sequencing gel electrophoresis, dried, and exposed on PhosphorImager screens and imaged with Typhoon FLA 7000 (GE Healthcare, U.K.).

[4] = biological target: T2, Top1-DNA cleavage complexes (Top1cc); test: Single turnover equilibrium cleavage assay with 25-mer duplex oligonucleotide; type: biochemical
Description: as §2

[5] = biological target: T3, cellular Top1 in MCF7 cells (Homo sapiens, UniProt P11387); test: Western blot of Top1 in whole cell extracts of treated MCF7 cells; type: cell-based; conditions: 10 μM, indicated times
T3 construct: endogenous in cells; host or cells: MCF7 cells
T3 sequence (P11387 2-765 limits assumed): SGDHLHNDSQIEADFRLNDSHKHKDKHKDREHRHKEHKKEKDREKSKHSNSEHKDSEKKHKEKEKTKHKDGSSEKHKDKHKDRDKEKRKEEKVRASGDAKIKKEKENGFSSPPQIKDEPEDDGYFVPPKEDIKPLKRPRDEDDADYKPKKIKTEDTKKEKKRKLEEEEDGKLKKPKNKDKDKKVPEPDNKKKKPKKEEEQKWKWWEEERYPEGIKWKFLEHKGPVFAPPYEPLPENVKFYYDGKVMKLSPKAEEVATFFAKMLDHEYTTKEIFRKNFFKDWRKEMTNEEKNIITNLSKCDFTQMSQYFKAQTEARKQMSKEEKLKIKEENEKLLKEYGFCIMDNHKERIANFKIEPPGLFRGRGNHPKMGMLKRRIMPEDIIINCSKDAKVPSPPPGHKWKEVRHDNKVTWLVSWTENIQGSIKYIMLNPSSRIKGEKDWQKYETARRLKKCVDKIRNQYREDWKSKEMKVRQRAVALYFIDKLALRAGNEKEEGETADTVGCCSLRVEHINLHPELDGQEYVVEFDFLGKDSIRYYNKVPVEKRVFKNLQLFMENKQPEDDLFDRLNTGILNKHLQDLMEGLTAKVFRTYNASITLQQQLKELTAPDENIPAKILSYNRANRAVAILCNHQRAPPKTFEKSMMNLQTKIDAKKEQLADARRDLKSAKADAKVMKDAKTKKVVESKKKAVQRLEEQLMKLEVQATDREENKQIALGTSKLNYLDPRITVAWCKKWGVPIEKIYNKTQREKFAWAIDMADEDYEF
Description: Because compound 8 binds with free Top1 (Figure 3) and inhibits Top1cc formation in live cells (Figure 2E), we examined the impact of compound 8 on endogenous Top1. Cellular lysates were prepared from MCF7 cells treated with compound 8 for indicated times and were analyzed by Western blotting. […] Because proteasome has been implicated for Top1 degradation,[7],[9],[45] we used proteasome specific inhibitor (MG132) to investigate Top1 proteolysis in compound 8 treated cells.
as §1

[6] = system: MCF7 cells transfected with Top1 or Ctr siRNA; test: Cell survival (MTT) assay in MCF7 cells transfected with Top1 or control siRNA; type: cell-based, human
Description: To further confirm that Top1 is the cellular target for compound 8 mediated cytotoxicity, we have performed cytotoxicity assays in siRNA mediated Top1 knockdown cells (Figure 6G, inset).
Cell survival was assessed by 3-(4,5-dimethylthiazol-2-yl)-2,5-diphenyltetrazolium bromide (MTT) assay as discussed previously.[6] The percent inhibition of viability for each concentration of the compounds was calculated with respect to the control, and IC50 values were estimated.
Transfections were performed as described previously.[40] In brief, cells (1.5 × 10^5) were transfected with control siRNA or 40 nM Top1 siRNA (Qiagen) using oligofectamine (Invitrogen) according to the manufacturer’s protocol.

`CN(C)c1ccc(-c2c3nc(c(-c4ccc(N(C)C)cc4)c4ccc([nH]4)c(-c4ccc(C(=O)O)cc4)c4nc(c(-c5ccc(C(=O)O)cc5)c5ccc2[nH]5)C=C4)C=C3)cc1` [Compound 8, 5,10-Bis(4-carboxyphenyl)-15,20-bis(4-dimethylaminophenyl)porphyrin] was tested, and the PARP cleavage [1] was “promotes PARP cleavage”, the inhibition at 1 µM ([2]; Top1 preincubated with 1 μM compound, read-out: Inhibition of enzyme before dilution) was 90 to 99% and the “Relief of Top1 inhibition upon dilution” value ([2]; at 40-fold dilution (final 0.025 μM)) was “Complete relief of Top1 inhibition”. For the same compound, the “Effect on CPT-induced preformed Top1cc in plasmid DNA cleavage assay” value ([3]; Top1 preincubated with plasmid DNA and CPT before addition of compound, dose dependent) was “completely abrogated CPT-induced Top1cc”, the “Stabilization of Top1cc in plasmid DNA cleavage assay” value ([3]; recombinant human Top1 100 fmol, pBS (SK+) DNA, 37 °C, 30 min) was “failed to stabilize Top1cc” and the “Stabilization of Top1cc in single turnover equilibrium cleavage assay” value ([4]; 25-mer duplex oligonucleotide, recombinant Top1 0.2 μM) was “failed to stabilize Top1cc”. The “Effect on CPT-induced Top1cc with 12-mer cleaved oligonucleotides” value ([4]; Top1 incubated with CPT before addition of compound) was “reversed the CPT-induced Top1cc”, the “Top1 signal in Western blot” value [5] was “time dependent depletion of Top1 signal” and the “Cytotoxicity in Top1 knockdown cells compared to Top1 proficient cells” value [6] was “reduced cytotoxicity”.
